These results are taken from patent publication US9000159B2 (Glenmark Pharmaceuticals, S.A., priority 2009, dated 2015).

This assay concerns the target T1, Human TRPA1 (Homo sapiens, UniProt O75762).
T1 construct: expressed in transfected cells; host or cells: CHO cells
Description: 45Calcium uptake assay: inhibition of AITC induced cellular uptake of radioactive calcium. The format is cell-based. The settings on record: AITC (30 μM) induced 45Ca uptake, Human TRPA1 expressing CHO cells; for inhibition at 1 µM: 1.0 μM test compound, read-out: Percentage inhibition at 1.0 μM; for inhibition at 10 µM: 10.0 μM test compound, read-out: Percentage inhibition at 10.0 μM; for IC50: read-out: Human IC50 value (range). An excerpt: The illustrative examples of the present invention are screened for TRPA1 activity according to a modified procedure described in (a) Tóth, A. et al., Life Sciences, 2003, 73, 487-498. (b) McNamara C, R. et al., Proc. Natl. Acad. Sci. U.S.A., 2007, 104, 13525-13530. The screening of the compounds can be carried out by other methods and procedures known to persons skilled in the art.
Screening for TRPA1 Antagonist Using the ^45Calcium Uptake Assay
The inhibition of TRPA1 receptor activation was measured as inhibition of allyl isothiocyanate (AITC) induced cellular uptake of radioactive calcium. Test compounds were dissolved in DMSO to prepare 10 mM stock solution and then diluted using plain medium with 0.1% BSA and 1.8 mM CaCl2 to get desired concentration. Final concentration of DMSO in the reaction was 0.5% (v/v). Human TRPA1 expressing CHO cells were grown in F-12 DMEM medium with 10% FBS, 1% penicillin-streptomycin solution, 400 μg/ml of G-418. Cells were seeded 24 h prior to the assay in 96 well plates so as to get ˜50,000 cells per well on the day of experiment. Cells were treated with test compounds for 10 min followed by addition of AITC at a final concentration of 30 μM and 5 μCi/ml ^45Ca^+2 for 3 min. Cells were washed and lysed using buffer containing 1% Triton X-100, 0.1% deoxycholate and 0.1% SDS. Radioactivity in the lysate was measured in Packard Top count after addition of liquid scintillant. Concentration response curves were plotted as a % of maximal response obtained in the absence of test antagonist. IC50 value was calculated from concentration response curve by nonlinear regression analysis using GraphPad PRISM software.

SMILES strings stand for the structures.

T1 sequence (O75762 whole entry): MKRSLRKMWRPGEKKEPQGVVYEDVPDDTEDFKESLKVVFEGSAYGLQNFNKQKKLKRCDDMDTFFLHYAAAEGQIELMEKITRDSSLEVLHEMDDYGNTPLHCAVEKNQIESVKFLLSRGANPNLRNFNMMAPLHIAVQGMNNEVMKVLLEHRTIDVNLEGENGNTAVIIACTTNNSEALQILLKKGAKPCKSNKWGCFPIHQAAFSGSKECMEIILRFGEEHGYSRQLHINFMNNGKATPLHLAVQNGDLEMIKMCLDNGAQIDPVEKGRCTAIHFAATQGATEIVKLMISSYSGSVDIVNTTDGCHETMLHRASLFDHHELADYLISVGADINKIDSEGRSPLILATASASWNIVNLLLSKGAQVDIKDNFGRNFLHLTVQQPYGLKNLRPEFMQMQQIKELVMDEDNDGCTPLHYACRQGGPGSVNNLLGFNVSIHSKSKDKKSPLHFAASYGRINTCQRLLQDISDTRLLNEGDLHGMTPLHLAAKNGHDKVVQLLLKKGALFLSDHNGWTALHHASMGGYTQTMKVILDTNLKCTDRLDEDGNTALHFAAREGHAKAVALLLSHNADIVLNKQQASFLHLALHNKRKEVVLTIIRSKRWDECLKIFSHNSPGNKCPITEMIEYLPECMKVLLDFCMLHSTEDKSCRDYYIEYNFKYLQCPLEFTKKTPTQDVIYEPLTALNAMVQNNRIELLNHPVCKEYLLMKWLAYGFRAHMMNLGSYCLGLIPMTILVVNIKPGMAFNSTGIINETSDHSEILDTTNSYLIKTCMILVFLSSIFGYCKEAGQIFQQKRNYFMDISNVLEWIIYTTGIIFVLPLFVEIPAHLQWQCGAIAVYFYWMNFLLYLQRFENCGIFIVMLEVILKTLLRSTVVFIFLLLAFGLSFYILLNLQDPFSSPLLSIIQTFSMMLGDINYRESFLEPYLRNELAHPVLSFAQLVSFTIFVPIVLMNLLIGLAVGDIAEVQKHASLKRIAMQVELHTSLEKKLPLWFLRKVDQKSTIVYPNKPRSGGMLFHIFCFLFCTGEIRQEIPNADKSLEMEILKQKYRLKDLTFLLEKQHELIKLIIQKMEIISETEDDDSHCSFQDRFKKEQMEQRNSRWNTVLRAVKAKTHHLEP

Take `Cn1nc2c(c1CC(=O)Nc1nc(-c3ccc(OC(F)F)c(F)c3)cs1)c(=O)n(C)c(=O)n2C` [Example 61, N-{4-[4-(Difluoromethoxy)-3-fluorophenyl]-1,3-thiazol-2-yl}-2-(2,5,7-trimethyl-4,6-dioxo-4,5,6,7-tetrahydro-2H-pyrazolo[3,4-d]pyrimidin-3-yl)acetamide]: the inhibition at 1 µM was found to be 86%, the inhibition at 10 µM was found to be 98.3% and the concentration for half-maximal inhibition (IC50) is 50 to 100 nM.
`Cn1c(=O)c2c(cnn2CC(=O)Nc2nc(-c3ccc(F)c(C(F)(F)F)c3F)cs2)n(C)c1=O` [Example 71, N-{4-[2,4-Difluoro-3-(trifluoromethyl)phenyl]-1,3-thiazol-2-yl}-2-(4,6-dimethyl-5,7-dioxo-4,5,6,7-tetrahydro-1H-pyrazolo[4,3-d]pyrimidin-1-yl)acetamide]: the inhibition at 1 µM came to 78.2%, the inhibition at 10 µM came to 99.3% and the IC50 was in the range of 50 to 100 nM.
For the compound `Cn1c(=O)c2c(ccn2CC(=O)Nc2nc(-c3cc(F)c(OCC(C)(C)C)c(F)c3)cs2)n(C)c1=O` [Example 8, N-{[4-(2,2-Dimethylpropoxy)-3,5-difluorophenyl]-1,3-thiazol-2-yl}-2-(1,3-dimethyl-2,4-dioxo-1,2,3,4-tetrahydro-5H-pyrrolo[3,2-d]pyrimidin-5-yl)acetamide], the inhibition at 1 µM stood at 91.9%, the inhibition at 10 µM is 100% and the IC50 is below 50 nM.
Consider `Cn1c(=O)c2c(ccn2CC(=O)Nc2nc(-c3ccc(F)c(C(F)(F)F)c3F)cs2)n(C)c1=O` [Example 9, 2-(1,3-Dimethyl-2,4-dioxo-1,2,3,4-tetrahydro-5H-pyrrolo[3,2-d]pyrimidin-5-yl)-N-{4-[2,4-difluorophenyl-3-trifluoromethyl]-1,3-thiazol-2-yl}acetamide], for which the inhibition at 1 µM came out at 60.7% and the inhibition at 10 µM worked out at 91.3%.
`Cn1nc2c(c1CC(=O)Nc1nc(-c3ccc(OC(F)(F)F)c(F)c3)cs1)c(=O)n(C)c(=O)n2C` [Example 59, N-{4-[3-Fluoro-4-(trifluoromethoxy)phenyl]-1,3-thiazol-2-yl}-2-(2,5,7-trimethyl-4,6-dioxo-4,5,6,7-tetrahydro-2H-pyrazolo[3,4-d]pyrimidin-3-yl)acetamide]: the inhibition at 1 µM worked out at 97.6%, the inhibition at 10 µM came out at 99.3% and the half-inhibitory concentration (IC50) is below 50 nM.
For `Cn1c(=O)c2c(cnn2CC(=O)Nc2nc(-c3cc(F)c(OCC(F)(F)F)c(F)c3)cs2)n(C)c1=O` [Example 73, N-{4-[3,5-Difluoro-4-(2,2,2-trifluoroethoxy)phenyl]-1,3-thiazol-2-yl}-2-(4,6-dimethyl-5,7-dioxo-4,5,6,7-tetrahydro-1H-pyrazolo[4,3-d]pyrimidin-1-yl)acetamide], in that order: 99.1%, 99.9% and below 50 nM.
On to `Cc1cc2c(c(=O)n(C)c(=O)n2C)n1CC(=O)Nc1nc(-c2ccc(OCC(C)(C)C)c(F)c2)cs1` [Example 31, N-{4-[4-(2,2-Dimethylpropoxy)-3-fluorophenyl]-1,3-thiazol-2-yl}-2-(1,3,6-trimethyl-2,4-dioxo-1,2,3,4-tetrahydro-5H-pyrrolo[3,2-d]pyrimidin-5-yl)acetamide], for which the inhibition at 1 µM is 87.4%, the inhibition at 10 µM came to 95.3% and the half-inhibitory concentration (IC50) fell in the range of 50 to 100 nM.
For `Cc1cc2c(c(=O)n(C)c(=O)n2C)n1CC(=O)Nc1nc(-c2cc(F)c(OCC3CCC3)c(F)c2)cs1` [Example 27, N-[4-(4-Cyclobutylmethoxy-3,5-difluorophenyl)-1,3-thiazol-2-yl]-2-(1,3,6-trimethyl-2,4-dioxo-1,2,3,4-tetrahydro-5H-pyrrolo[3,2-d]pyrimidin-5-yl)acetamide], in that order: 87.6%, 99.2% and below 50 nM.
For the compound `Cn1nc2c(c1CC(=O)Nc1nc(-c3cc(F)cc(F)c3)cs1)c(=O)n(C)c(=O)n2C` [Example 52, N-[4-(3,5-Difluorophenyl)-1,3-thiazol-2-yl]-2-(2,5,7-trimethyl-4,6-dioxo-4,5,6,7-tetrahydro-2H-pyrazolo[3,4-d]pyrimidin-3-yl)acetamide], the inhibition at 1 µM turned out to be 37.8% and the inhibition at 10 µM was determined as 64.8%.
For the compound `CC(C)COc1c(Cl)cc(-c2csc(NC(=O)Cn3ncc4c3c(=O)n(C)c(=O)n4C)n2)cc1Cl` [Example 75, N-[4-(3,5-Dichloro-4-isobutoxyphenyl)-1,3-thiazol-2-yl]-2-(4,6-dimethyl-5,7-dioxo-4,5,6,7-tetrahydro-1H-pyrazolo[4,3-d]pyrimidin-1-yl)acetamide], the inhibition at 1 µM was found to be 99.3%, the inhibition at 10 µM was 100% and the IC50 is below 50 nM.
On to `Cc1cc2c(c(=O)n(C)c(=O)n2C)n1CC(=O)Nc1cc(-c2ccc(Br)cc2)on1` [Example 33, N-[5-(4-bromophenyl)isoxazol-3-yl]-2-(1,3,6-trimethyl-2,4-dioxo-1,2,3,4-tetrahydro-5H-pyrrolo[3,2-d]pyrimidin-5-yl)acetamide], for which the inhibition at 1 µM turned out to be 0% and the inhibition at 10 µM is 28.3%.
On to `CC(C)Cc1ccc(-c2csc(NC(=O)Cc3c4c(=O)n(C)c(=O)n(C)c4nn3C)n2)cc1` [Example 45, N-[4-(4-Isobutylphenyl)-1,3-thiazol-2-yl]-2-(2,5,7-trimethyl-4,6-dioxo-4,5,6,7-tetrahydro-2H-pyrazolo[3,4-d]pyrimidin-3-yl)acetamide], for which the inhibition at 1 µM was 93.5%, the inhibition at 10 µM worked out at 98.9% and the IC50 lay within 50 to 100 nM.
On to `Cn1c(=O)c2c(cnn2CC(=O)Nc2nc(-c3ccc(OCC(C)(C)C)c(Cl)c3)cs2)n(C)c1=O` [Example 70, N-{4-[3-Chloro-4-(2,2-dimethylpropoxy)phenyl]-1,3-thiazol-2-yl}-2-(4,6-dimethyl-5,7-dioxo-4,5,6,7-tetrahydro-1H-pyrazolo[4,3-d]pyrimidin-1-yl)acetamide], for which the inhibition at 1 µM was found to be 91.5%, the inhibition at 10 µM is 98.8% and the IC50 was below 50 nM.
For `Cn1nc2c(c1CC(=O)Nc1nc(-c3cccc(C(F)(F)F)c3F)cs1)c(=O)n(C)c(=O)n2C` [Example 55, N-{4-[2-Fluoro-3-(trifluoromethyl)phenyl]-1,3-thiazol-2-yl}-2-(2,5,7-trimethyl-4,6-dioxo-4,5,6,7-tetrahydro-2H-pyrazolo[3,4-d]pyrimidin-3-yl)acetamide] the same measures were 92.2%, 99.2% and 50 to 100 nM.
On to `CC(C)COc1c(F)cc(-c2csc(NC(=O)Cn3ccc4c3c(=O)n(C)c(=O)n4C)n2)cc1F` [Example 6, 2-(1,3-Dimethyl-2,4-dioxo-1,2,3,4-tetrahydro-5H-pyrrolo[3,2-d]pyrimidin-5-yl)-N-{4-[4-(2-methylpropoxy)-3,5-difluorophenyl]-1,3-thiazol-2-yl}acetamide], for which the inhibition at 1 µM was determined as 42.4% and the inhibition at 10 µM was 52.8%.
On to `CN(C)Cc1cn(CC(=O)Nc2nc(-c3cc(F)c(OCC(C)(C)C)c(F)c3)cs2)c2c(=O)n(C)c(=O)n(C)c12` [Example 39], for which the inhibition at 1 µM turned out to be 4.89% and the inhibition at 10 µM was 21.1%.
For `Cn1c(=O)c2c(cnn2CC(=O)Nc2nc(-c3cc(F)c(OCC(C)(C)C)c(Cl)c3)cs2)n(C)c1=O` [Example 80, N-{4-[3-Chloro-4-(2,2-dimethylpropoxy)-5-fluorophenyl]-1,3-thiazol-2-yl}-2-(4,6-dimethyl-5,7-dioxo-4,5,6,7-tetrahydro-1H-pyrazolo[4,3-d]pyrimidin-1-yl)acetamide], the inhibition at 1 µM is 100%, the inhibition at 10 µM came out at 100% and the IC50 was below 50 nM.
Consider `Cc1cc2c(c(=O)n(C)c(=O)n2C)n1CC(=O)Nc1nc(-c2cc(F)c(OCC(C)(C)C)c(F)c2)cs1` [Example 24, N1-{4-[3,5-Difluoro-4-(2,2-dimethylpropoxy)phenyl]-1,3-thiazol-2-yl}-2-(1,3,6-trimethyl-2,4-dioxo-1,2,3,4-tetrahydro-5H-pyrrolo[3,2-d]pyrimidin-5-yl)acetamide], for which the inhibition at 1 µM came out at 93.9%, the inhibition at 10 µM was found to be 99.4% and the concentration for half-maximal inhibition (IC50) was below 50 nM.
For `Cc1cc2c(c(=O)n(C)c(=O)n2C)n1CC(=O)Nc1nc(-c2ccc(C(F)(F)F)c(F)c2)cs1` [Example 22, N-[4-(3-Fluoro-4-trifluoromethylphenyl)-1,3-thiazol-2-yl]-2-(1,3,6-trimethyl-2,4-dioxo-1,2,3,4-tetrahydro-5H-pyrrolo[3,2-d]pyrimidin-5-yl)acetamide], in that order: 81.4%, 99.4% and below 50 nM.

The term inhibition denotes the drop in the measured response relative to a control, in per cent. The IC50 is the concentration at which inhibition is half-maximal.
